pIC50: −log10 of the molar value.
How the values were obtained:
[1] = biological target: T1, WEE1 (Homo sapiens, UniProt P30291+Q96SW2); assay: Western-blot assay of substrate protein degradation in hPBMCs, WEE1; assay type: cell-based; details: 24 hours of compound treatment, compounds tested at 50 nM and 500 nM (concentration of the table not stated)
T1 construct: endogenous in cells; host or cells: hPBMCs (Milecell Biotechnologies)

[2] = biological target: T2, IKZF1 (Homo sapiens, UniProt Q13422+Q96SW2); assay: Western-blot assay of substrate protein degradation in hPBMCs, IKZF1; assay type: cell-based; details: 24 hours of compound treatment, compounds tested at 50 nM and 500 nM (concentration of the table not stated)
T2 construct: endogenous in cells; host or cells: hPBMCs (Milecell Biotechnologies)

[3] = biological target: T3, IKZF2 (Homo sapiens, UniProt Q96SW2+Q9UKS7); assay: Western-blot assay of substrate protein degradation in hPBMCs, IKZF2; assay type: cell-based; details: 24 hours of compound treatment, compounds tested at 50 nM and 500 nM (concentration of the table not stated)
T3 construct: endogenous in cells; host or cells: hPBMCs (Milecell Biotechnologies)

[4] = biological target: T4, IKZF3 (Homo sapiens, UniProt Q96SW2+Q9UKT9); assay: Western-blot assay of substrate protein degradation in hPBMCs, IKZF3; assay type: cell-based; details: 24 hours of compound treatment, compounds tested at 50 nM and 500 nM (concentration of the table not stated)
T4 construct: endogenous in cells; host or cells: hPBMCs (Milecell Biotechnologies)

[5] = biological target: T5, CK1α (Homo sapiens, UniProt P48729+Q96SW2); assay: Western-blot assay of substrate protein degradation in hPBMCs, CK1α; assay type: cell-based; details: 24 hours of compound treatment, compounds tested at 50 nM and 500 nM (concentration of the table not stated)
T5 construct: endogenous in cells; host or cells: hPBMCs (Milecell Biotechnologies)

[6] = biological target: T6, GSPT1 (Homo sapiens, UniProt P15170+Q96SW2); assay: Western-blot assay of substrate protein degradation in hPBMCs, GSPT1; assay type: cell-based; details: 24 hours of compound treatment, compounds tested at 50 nM and 500 nM (concentration of the table not stated)
T6 construct: endogenous in cells; host or cells: hPBMCs (Milecell Biotechnologies)

[7] = biological target: T7, human Cereblon WT GST-tagged protein (Homo sapiens, UniProt Q96SW2); assay: CRBN-binding affinity by HTRF (CEREBLON BINDING kit); details: HTRF inhibitory activity, CEREBLON BINDING kit; read-out: HTRF IC50
T7 construct: purchased CISBIO 64BDCRBNPEH

[8] = test system: CAL-62; assay: Tumor cell proliferation inhibition (CellTiter-Meiluncell Luminescent Cell Viability Assay), CAL-62; details: Homo sapiens, CAL-62, 96 h, read-out: inhibitory activity (IC50, nM) against tumor cells proliferation, CAL-62
Description: The tumor cells used herein were cultured in a cell culture medium listed in table 2 at 37°C in an incubator with 5% CO2. Prior to experimentation, all cell lines used were correctly identified by STR profiling, and tested negative for mycoplasma contamination using a mycoplasma detection kit through routine screenings.
On the following day, the test compounds of the present disclosure were subjected to serial dilution. […] Subsequently, 0.5 µL of the test compound dilution was transferred into the 96-well plate containing the cells, with each well containing 100 µL of cell culture medium. […] Into the 96-well plate, the diluted test compounds and corresponding detection reagents were added, resulting in final test compound concentrations of 500 nM and 10 nM, respectively. The experimental procedure is described below using the diluted 2 µM test compound as an example.
After the cells were treated with the compounds of the present disclosure for a specified period (the treatment durations were shown in Table 3), the cell viability assay reagent was added to the culture medium according to the kit's instructions to determine cell viability. […] All controls were treated using the same procedure as the compounds of the present disclosure. The growth inhibition curves for the compounds of the present disclosure were plotted using Prism GraphPad software, and the IC50 values were calculated therefrom.

[9] = test system: MM.1R; assay: Tumor cell proliferation inhibition (CellTiter-Meiluncell Luminescent Cell Viability Assay), MM.1R; details: Homo sapiens, 96 h, read-out: inhibitory activity (IC50, nM) against tumor cells proliferation, MM.1R
[10] = test system: Jurkat; assay: Tumor cell proliferation inhibition (CellTiter-Meiluncell Luminescent Cell Viability Assay), Jurkat; details: Homo sapiens, 96 h, read-out: inhibitory activity (IC50, nM) against tumor cells proliferation, Jurkat
[11] = test system: Human acute T lymphocytic leukemia cells (Molt-4); assay: Tumor cell proliferation inhibition (CellTiter-Meiluncell Luminescent Cell Viability Assay), Molt-4; details: MOLT-4, 96 h, read-out: inhibitory activity (IC50, nM) against tumor cells proliferation, Molt 4
[12] = test system: NCI-H1975; assay: Tumor cell proliferation inhibition (CellTiter-Meiluncell Luminescent Cell Viability Assay), NCI-H1975; details: Homo sapiens, NCI-H1975, 96 h, read-out: inhibitory activity (IC50, nM) against tumor cells proliferation, H1975
[13] = test system: Human breast cancer cells (MDA-MB-231); assay: Tumor cell proliferation inhibition (CellTiter-Meiluncell Luminescent Cell Viability Assay), MDA-MB-231; details: MDA-MB-231, 96 h, read-out: inhibitory activity (IC50, nM) against tumor cells proliferation, MDA-MB-231
[14] = test system: CCRF-CEM; assay: Tumor cell proliferation inhibition (CellTiter-Meiluncell Luminescent Cell Viability Assay), CCRF-CEM; details: Homo sapiens, 96 h, read-out: inhibitory activity (IC50, nM) against tumor cells proliferation, CCRF-CEM

T7 sequence (Q96SW2 whole entry): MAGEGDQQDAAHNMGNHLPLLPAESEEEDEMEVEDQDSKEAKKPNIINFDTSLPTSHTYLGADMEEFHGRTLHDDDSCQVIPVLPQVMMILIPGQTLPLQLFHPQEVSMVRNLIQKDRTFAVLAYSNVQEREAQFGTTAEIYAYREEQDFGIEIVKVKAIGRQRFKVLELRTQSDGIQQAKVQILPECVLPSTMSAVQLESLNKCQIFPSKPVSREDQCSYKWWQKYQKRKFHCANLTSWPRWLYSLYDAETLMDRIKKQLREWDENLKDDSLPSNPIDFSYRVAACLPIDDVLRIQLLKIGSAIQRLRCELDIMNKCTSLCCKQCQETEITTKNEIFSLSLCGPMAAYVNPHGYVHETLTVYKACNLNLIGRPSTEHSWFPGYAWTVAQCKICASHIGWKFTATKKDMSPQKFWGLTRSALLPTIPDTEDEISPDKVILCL
T1 sequence (P30291 whole entry): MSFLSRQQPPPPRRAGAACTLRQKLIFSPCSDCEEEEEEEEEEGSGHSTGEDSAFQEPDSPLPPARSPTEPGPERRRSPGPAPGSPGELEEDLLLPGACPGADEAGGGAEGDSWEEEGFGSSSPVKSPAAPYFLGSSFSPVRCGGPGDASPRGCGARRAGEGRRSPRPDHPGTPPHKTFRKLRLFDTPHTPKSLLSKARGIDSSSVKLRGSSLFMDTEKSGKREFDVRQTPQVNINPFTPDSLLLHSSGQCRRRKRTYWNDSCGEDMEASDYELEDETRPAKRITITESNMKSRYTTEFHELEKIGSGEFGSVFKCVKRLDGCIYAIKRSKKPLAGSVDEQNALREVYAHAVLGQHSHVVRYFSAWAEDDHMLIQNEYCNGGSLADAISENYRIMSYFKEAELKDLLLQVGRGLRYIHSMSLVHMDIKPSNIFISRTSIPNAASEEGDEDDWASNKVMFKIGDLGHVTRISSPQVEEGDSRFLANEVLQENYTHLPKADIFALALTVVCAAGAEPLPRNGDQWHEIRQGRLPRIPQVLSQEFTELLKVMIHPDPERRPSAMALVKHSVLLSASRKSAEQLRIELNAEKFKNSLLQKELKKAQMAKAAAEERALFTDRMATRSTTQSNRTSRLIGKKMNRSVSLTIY
T1 sequence (Q96SW2 whole entry): as the sequence (Q96SW2 whole entry) above
T1 sequence (Q16531 whole entry partner): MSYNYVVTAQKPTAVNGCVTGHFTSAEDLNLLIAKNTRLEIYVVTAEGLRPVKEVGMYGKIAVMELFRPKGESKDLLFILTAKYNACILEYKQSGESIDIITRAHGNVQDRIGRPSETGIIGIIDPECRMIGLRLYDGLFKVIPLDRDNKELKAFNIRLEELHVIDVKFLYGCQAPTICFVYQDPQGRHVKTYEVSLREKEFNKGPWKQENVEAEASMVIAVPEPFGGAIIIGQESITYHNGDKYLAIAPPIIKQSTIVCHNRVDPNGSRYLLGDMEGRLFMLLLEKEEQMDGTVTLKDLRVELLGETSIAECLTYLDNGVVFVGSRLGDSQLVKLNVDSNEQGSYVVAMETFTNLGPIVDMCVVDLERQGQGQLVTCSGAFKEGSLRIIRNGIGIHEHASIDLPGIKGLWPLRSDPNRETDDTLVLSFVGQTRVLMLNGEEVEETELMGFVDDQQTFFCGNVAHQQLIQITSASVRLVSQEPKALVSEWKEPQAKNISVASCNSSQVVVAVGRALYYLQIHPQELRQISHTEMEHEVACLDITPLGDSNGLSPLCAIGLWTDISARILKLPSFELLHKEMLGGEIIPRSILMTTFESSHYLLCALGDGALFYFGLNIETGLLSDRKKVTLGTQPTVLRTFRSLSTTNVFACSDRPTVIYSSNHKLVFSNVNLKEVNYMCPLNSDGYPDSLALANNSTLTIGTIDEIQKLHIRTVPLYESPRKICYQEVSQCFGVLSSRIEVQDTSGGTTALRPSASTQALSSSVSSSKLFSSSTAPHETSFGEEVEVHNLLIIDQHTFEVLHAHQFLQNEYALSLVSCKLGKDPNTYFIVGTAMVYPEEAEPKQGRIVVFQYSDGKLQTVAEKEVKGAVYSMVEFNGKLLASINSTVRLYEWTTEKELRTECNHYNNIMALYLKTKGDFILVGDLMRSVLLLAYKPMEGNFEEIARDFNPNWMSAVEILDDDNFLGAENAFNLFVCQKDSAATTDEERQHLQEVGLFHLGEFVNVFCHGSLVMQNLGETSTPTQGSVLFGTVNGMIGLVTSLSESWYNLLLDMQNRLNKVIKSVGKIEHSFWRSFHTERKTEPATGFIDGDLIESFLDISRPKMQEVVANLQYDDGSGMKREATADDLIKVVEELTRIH
T4 sequence (Q9UKT9 whole entry): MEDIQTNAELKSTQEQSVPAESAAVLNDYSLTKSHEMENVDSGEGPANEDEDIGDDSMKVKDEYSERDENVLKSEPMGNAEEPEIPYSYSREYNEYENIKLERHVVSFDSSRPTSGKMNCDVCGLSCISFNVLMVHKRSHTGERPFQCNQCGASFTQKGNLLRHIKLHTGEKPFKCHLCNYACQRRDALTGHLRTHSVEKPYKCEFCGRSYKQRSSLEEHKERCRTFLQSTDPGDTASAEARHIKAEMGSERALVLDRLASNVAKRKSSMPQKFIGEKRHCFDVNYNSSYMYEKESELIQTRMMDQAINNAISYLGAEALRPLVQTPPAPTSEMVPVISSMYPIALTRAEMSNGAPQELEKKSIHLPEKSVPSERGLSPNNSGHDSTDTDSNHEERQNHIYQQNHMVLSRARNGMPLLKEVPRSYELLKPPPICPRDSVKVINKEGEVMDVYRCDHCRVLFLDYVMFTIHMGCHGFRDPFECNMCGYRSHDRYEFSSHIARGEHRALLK
T4 sequence (Q96SW2 whole entry): as the sequence (Q96SW2 whole entry) above
T4 sequence (Q16531 whole entry partner): as the sequence (Q16531 whole entry partner) above
T3 sequence (Q9UKS7 whole entry): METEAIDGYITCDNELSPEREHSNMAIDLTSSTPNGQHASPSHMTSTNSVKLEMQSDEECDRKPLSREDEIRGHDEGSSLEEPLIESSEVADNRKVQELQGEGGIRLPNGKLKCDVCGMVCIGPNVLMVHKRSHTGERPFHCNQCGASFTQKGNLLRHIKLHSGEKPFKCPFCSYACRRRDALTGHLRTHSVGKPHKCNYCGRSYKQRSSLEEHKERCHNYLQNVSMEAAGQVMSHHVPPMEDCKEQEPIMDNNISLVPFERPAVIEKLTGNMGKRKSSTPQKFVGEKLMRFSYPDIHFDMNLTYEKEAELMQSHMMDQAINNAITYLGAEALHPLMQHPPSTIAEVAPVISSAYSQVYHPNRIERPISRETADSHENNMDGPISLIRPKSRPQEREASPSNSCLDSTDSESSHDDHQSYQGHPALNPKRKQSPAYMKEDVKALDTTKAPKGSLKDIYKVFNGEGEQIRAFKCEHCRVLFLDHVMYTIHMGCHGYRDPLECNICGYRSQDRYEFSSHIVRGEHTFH
T3 sequence (Q96SW2 whole entry): as the sequence (Q96SW2 whole entry) above
T3 sequence (Q16531 whole entry partner): as the sequence (Q16531 whole entry partner) above
T6 sequence (P15170 whole entry): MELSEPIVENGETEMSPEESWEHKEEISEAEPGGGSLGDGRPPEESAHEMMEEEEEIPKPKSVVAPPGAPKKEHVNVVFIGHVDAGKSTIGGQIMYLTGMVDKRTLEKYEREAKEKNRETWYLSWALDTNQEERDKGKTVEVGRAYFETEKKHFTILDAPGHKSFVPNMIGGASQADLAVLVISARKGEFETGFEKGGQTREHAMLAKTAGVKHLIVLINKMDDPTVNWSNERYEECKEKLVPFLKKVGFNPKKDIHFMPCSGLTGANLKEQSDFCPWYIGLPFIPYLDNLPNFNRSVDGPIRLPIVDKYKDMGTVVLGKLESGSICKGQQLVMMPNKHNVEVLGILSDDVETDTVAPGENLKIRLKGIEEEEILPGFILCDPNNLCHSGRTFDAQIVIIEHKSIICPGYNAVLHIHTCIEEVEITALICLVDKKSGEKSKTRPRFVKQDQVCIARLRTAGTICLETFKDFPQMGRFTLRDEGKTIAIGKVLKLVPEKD
T6 sequence (Q96SW2 whole entry): as the sequence (Q96SW2 whole entry) above
T6 sequence (Q16531 whole entry partner): as the sequence (Q16531 whole entry partner) above
T2 sequence (Q13422 whole entry): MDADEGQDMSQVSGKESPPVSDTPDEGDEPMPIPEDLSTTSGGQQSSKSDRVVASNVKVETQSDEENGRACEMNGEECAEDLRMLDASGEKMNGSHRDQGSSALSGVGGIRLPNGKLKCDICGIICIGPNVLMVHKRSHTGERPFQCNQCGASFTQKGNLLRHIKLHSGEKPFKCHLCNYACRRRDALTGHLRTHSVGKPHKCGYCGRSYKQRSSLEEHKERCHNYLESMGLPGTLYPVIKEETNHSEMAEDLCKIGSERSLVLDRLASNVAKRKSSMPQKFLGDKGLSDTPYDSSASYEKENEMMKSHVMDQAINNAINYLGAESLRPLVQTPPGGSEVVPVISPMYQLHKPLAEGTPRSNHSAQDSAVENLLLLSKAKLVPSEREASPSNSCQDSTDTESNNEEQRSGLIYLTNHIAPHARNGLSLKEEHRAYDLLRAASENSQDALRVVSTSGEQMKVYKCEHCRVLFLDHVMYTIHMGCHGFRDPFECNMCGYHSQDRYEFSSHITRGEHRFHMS
T2 sequence (Q96SW2 whole entry): as the sequence (Q96SW2 whole entry) above
T2 sequence (Q16531 whole entry partner): as the sequence (Q16531 whole entry partner) above

Compound | Weel substrate protein remaining % [1] | IKZF 1 substrate protein remaining % [2] | IKZF2 substrate protein remaining % [3] | IKZF3 substrate protein remaining % [4] | CK1a substrate protein remaining % [5] | GSPT1 substrate protein remaining % [6] | pIC50 [7] | IC50 [8] [nM] | IC50 [9] [nM] | IC50 [10] [nM] | IC50 [11] [nM] | IC50 [12] [nM] | IC50 [13] [nM] | IC50 [14] [nM]
O=C1CCC(N2Cc3cc(CN4CCN(c5cccs5)CC4)ccc3C2=O)C(=O)N1 (centres unmarked) [GT-04545, 3-(1-oxo-5-((4-(thiophen-2-yl)piperazin-1-yl)methyl)isoindolin-2-yl)piperidine-2,6-dione] | A (0% ≤ substrate protein remaining % ≤ 80%) | A (0% ≤ substrate protein remaining % ≤ 80%) | A (0% ≤ substrate protein remaining % ≤ 80%) | A (0% ≤ substrate protein remaining % ≤ 80%) | A (0% ≤ substrate protein remaining % ≤ 80%) | A (0% ≤ substrate protein remaining % ≤ 80%) | > 6.30 | 100 to 500 |  |  |  |  |  | 
Cc1cscc1N1CCN(Cc2ccc3c(c2)CN(C2CCC(=O)NC2=O)C3=O)CC1 (centres unmarked) [GT-04548, 3-(5-((4-(4-methylthiophen-3-yl)piperazin-1-yl)methyl)-1-oxoisoindolin-2-yl)piperidine-2,6-dione] | A (0% ≤ substrate protein remaining % ≤ 80%) | A (0% ≤ substrate protein remaining % ≤ 80%) | A (0% ≤ substrate protein remaining % ≤ 80%) | A (0% ≤ substrate protein remaining % ≤ 80%) | A (0% ≤ substrate protein remaining % ≤ 80%) | A (0% ≤ substrate protein remaining % ≤ 80%) | 6.00 to 6.30 |  | 10 to 50 | 10 to 50 | 10 to 50 | 500 to 1000 | 500 to 1000 | 
O=C1CCC(N2Cc3cc(CN4CCN(c5c(F)cccc5F)CC4)ccc3C2=O)C(=O)N1 (centres unmarked) [GT-04540, 3-(5-((4-(2,6-difluorophenyl)piperazin-1-yl)methyl)-1-oxoisoindolin-2-yl)piperidine-2,6-dione] | A (0% ≤ substrate protein remaining % ≤ 80%) | A (0% ≤ substrate protein remaining % ≤ 80%) | A (0% ≤ substrate protein remaining % ≤ 80%) | A (0% ≤ substrate protein remaining % ≤ 80%) | B (80%< substrate protein remaining %≤ 100%) | A (0% ≤ substrate protein remaining % ≤ 80%) | 6.00 to 6.30 | 100 to 500 | 100 to 500 | 50 to 100 | 50 to 100 |  |  | 
O=C1CCC(N2Cc3cc(CN4CCN(c5nccc(Cl)c5Cl)CC4)ccc3C2=O)C(=O)N1 (centres unmarked) [GT-04532, 3-(5-((4-(3,4-dichloropyridin-2-yl)piperazin-1-yl)methyl)-1-oxoisoindolin-2-yl)piperidine-2,6-dione] | A (0% ≤ substrate protein remaining % ≤ 80%) | A (0% ≤ substrate protein remaining % ≤ 80%) | A (0% ≤ substrate protein remaining % ≤ 80%) | A (0% ≤ substrate protein remaining % ≤ 80%) | A (0% ≤ substrate protein remaining % ≤ 80%) | A (0% ≤ substrate protein remaining % ≤ 80%) | 6.00 to 6.30 | 10 to 50 | 10 to 50 | 10 to 50 | 10 to 50 |  |  | 
O=C1CCC(N2Cc3cc(CN4CCN(c5cncc(Cl)c5Cl)CC4)ccc3C2=O)C(=O)N1 (centres unmarked) [GT-04538, 3-(5-((4-(4,5-dichloropyridin-3-yl)piperazin-1-yl)methyl)-1-oxoisoindolin-2-yl)piperidine-2,6-dione] | A (0% ≤ substrate protein remaining % ≤ 80%) | A (0% ≤ substrate protein remaining % ≤ 80%) | A (0% ≤ substrate protein remaining % ≤ 80%) | A (0% ≤ substrate protein remaining % ≤ 80%) | A (0% ≤ substrate protein remaining % ≤ 80%) | A (0% ≤ substrate protein remaining % ≤ 80%) | > 6.30 | 100 to 500 | 100 to 500 | 50 to 100 | 50 to 100 |  |  | 
O=C1CCC(N2Cc3cc(CN4CCN(c5cccc(Cl)c5Cl)CC4)cc(F)c3C2=O)C(=O)N1 (centres unmarked) [GT-04445, 3-(5-((4-(2,3-dichlorophenyl)piperazin-1-yl)methyl)-7-fluoro-1-oxoisoindolin-2-yl)piperidine-2,6-dione] | B (80%< substrate protein remaining %≤ 100%) | A (0% ≤ substrate protein remaining % ≤ 80%) | A (0% ≤ substrate protein remaining % ≤ 80%) | A (0% ≤ substrate protein remaining % ≤ 80%) | B (80%< substrate protein remaining %≤ 100%) | A (0% ≤ substrate protein remaining % ≤ 80%) | 6.00 to 6.30 |  |  | 100 to 500 | 100 to 500 |  |  | 100 to 500
COc1ccc(N2CCN(Cc3ccc4c(c3)CN(C3CCC(=O)NC3=O)C4=O)CC2)cc1 (centres unmarked) [GT-04447, 3-(5-((4-(4-methoxyphenyl)piperazin-1-yl)methyl)-1-oxoisoindolin-2-yl)piperidine-2,6-dione] | B (80%< substrate protein remaining %≤ 100%) | A (0% ≤ substrate protein remaining % ≤ 80%) | A (0% ≤ substrate protein remaining % ≤ 80%) | A (0% ≤ substrate protein remaining % ≤ 80%) | B (80%< substrate protein remaining %≤ 100%) | A (0% ≤ substrate protein remaining % ≤ 80%) | 5.82 to 6.00 |  | 100 to 500 | 100 to 500 | 100 to 500 |  |  | 100 to 500
O=C1CCC(N2Cc3c(ccc(CN4CCN(c5cccc(Cl)c5Cl)CC4)c3F)C2=O)C(=O)N1 (centres unmarked) [GT-04526, 3-(5-((4-(2,3-dichlorophenyl)piperazin-1-yl)methyl)-4-fluoro-1-oxoisoindolin-2-yl)piperidine-2,6-dione] | A (0% ≤ substrate protein remaining % ≤ 80%) | A (0% ≤ substrate protein remaining % ≤ 80%) | A (0% ≤ substrate protein remaining % ≤ 80%) | A (0% ≤ substrate protein remaining % ≤ 80%) | A (0% ≤ substrate protein remaining % ≤ 80%) | A (0% ≤ substrate protein remaining % ≤ 80%) | 6.00 to 6.30 | 5 to 10 | 1 to 5 |  | 1 to 5 | 10 to 50 | 10 to 50 | 
O=C1CCC(N2Cc3cc(CN4CCN(c5cnnc(Cl)c5Cl)CC4)ccc3C2=O)C(=O)N1 (centres unmarked) [GT-04544, 3-(5-((4-(5,6-dichloropyridazin-4-yl)piperazin-1-yl)methyl)-1-oxoisoindolin-2-yl)piperidine-2,6-dione] | A (0% ≤ substrate protein remaining % ≤ 80%) | A (0% ≤ substrate protein remaining % ≤ 80%) | A (0% ≤ substrate protein remaining % ≤ 80%) | A (0% ≤ substrate protein remaining % ≤ 80%) | A (0% ≤ substrate protein remaining % ≤ 80%) | A (0% ≤ substrate protein remaining % ≤ 80%) | 6.00 to 6.30 | 50 to 100 |  |  |  |  |  | 
O=C1CCC(N2Cc3cc(CN4CCN(c5ccsc5)CC4)ccc3C2=O)C(=O)N1 (centres unmarked) [GT-04547, 3-(1-oxo-5-((4-(thiophen-3-yl)piperazin-1-yl)methyl)isoindolin-2-yl)piperidine-2,6-dione] | A (0% ≤ substrate protein remaining % ≤ 80%) | A (0% ≤ substrate protein remaining % ≤ 80%) | A (0% ≤ substrate protein remaining % ≤ 80%) | A (0% ≤ substrate protein remaining % ≤ 80%) | A (0% ≤ substrate protein remaining % ≤ 80%) | A (0% ≤ substrate protein remaining % ≤ 80%) | 6.00 to 6.30 |  | 100 to 500 | 100 to 500 | 100 to 500 |  |  | 
